{
  "source": "patent US20080274090A1",
  "about": "“REVERSAL OF INSULIN-DEPENDENT DIABETES BY ISLET-PRODUCING STEM CELLS, ISLET PROGENITOR CELLS AND ISLET-LIKE STRUCTURES” (UNIVERSITY OF FLORIDA RESEARCH FOUNDATION, INC., priority 2000, published 2008)",
  "key": {"[1]": {"test_system": "IdIs derived from NOD/Uf pancreatic IPSCs", "assay": "Insulin content and secretion of cultured IdIs upon glucose stimulation (insulin ELISA)", "assay_type": "cell-based, mouse", "details": "for insulin release from IdIs by secretagogues: 10 mM arginine or 1 nM GLP-1 with 17.5 mM glucose, final 3 hours, lesser degree than nicotinamide", "description": "To determine insulin secretion, 300 IdIs derived from NOD/Uf pancreatic IPSCs were cultured in vitro for 5 days in EHAA medium containing either 0.5% NMS or prediabetic NOD mouse serum with or without nicotinamide (1-10 mM). At the end of the culture period, cells were washed twice in Krebs ringer buffer (KRB) and stimulated with 17.5 mM glucose in KRB for 3 hours.\nThree hundred IdIs (from culture flasks containing EHAA-0.5% NMS medium) were seeded in 24 well plates in 2 ml of EHAA medium containing 0.5% of NMS with or without nicotinamide (1-10 mM) for 5 days at 37° C. (5% CO2). For secretagogues, IdIs were cultured in EHAA-0.5% NMS medium for 5 days. Three hours prior to the end of the incubation period, medium was removed and IdIs gently washed twice with KRB. To stimulate insulin secretion, 17.5 mM glucose was added to wells in 1 ml of KRB, and incubated at 37° C. for 3 hrs. Following incubation, culture supernatants were stored at −70° C. until use. The IdIs in each well were then subjected to 1 ml of ice-cold acid-ethanol extraction overnight at 4° C., and cell-free extracts were neutralized with Tris base (400 mM final concentration) prior to storing at −70° C. until use. To test the effect of secretagogues, 10 mM arginine and 1 nM GLP-1 (Sigma Chemicals, St Louis, Mo.) were used for the final 3 hours incubation in KRB. The insulin in the supernatants and in the extract were determined using an insulin ELISA kit (Crystal Chemical Inc., Chicago, Ill.), with rat insulin standard for quantitation (supplied in the kit). Comparisons between groups were done using the one tailed t-test."}, "IPSC line #7": {"test_system": "IPSC line #7", "assay": "Expression of development/differentiation factors in IPSC line #7 under nicotinamide", "assay_type": "cell-based, mouse", "protocol": "Nicotinamide has also been determined to enhance expression of various factors involved in the development/differentiation of the pancreas. […] A differentially regulated expression of Ins I and II was also apparent: Ins I was expressed at lower concentrations of nicotinamide (1-20 mM), while Ins II was expressed at 20-40 mM nicotinamide. Glucagon expression was visible only at a low dose of nicotinamide (<10 mM), while amylase expression was maintained at all doses (0-40 mM) (data not shown)."}, "human cell line (#H3)": {"test_system": "human cell line (#H3)", "assay": "Differentiation of human IPSCs with nicotinamide and ECM (immunohistochemical staining)", "assay_type": "cell-based", "details": "upon treatment with nicotinamide", "from_the_text": "Several lines were derived from human pancreatic ductal preparation provided by DRI (Miami, Fla.). […] Only about 2% of the cells express insulin (FIG. 16M). None of the cells express tyrosine hydroxylase (FIG. 16G)."}},
  "note": "No end group written: not given here.",
  "data": [
    {"molecule": "N=C(N)NCCC[C@H](N)C(=O)O", "note": "[arginine]", "values": [
      {"measurement": "insulin release from IdIs by secretagogues", "setting": "[1]", "value": "induced insulin release"}
    ]},
    {"molecule": "NC(=O)c1cccnc1", "note": "[nicotinamide]", "values": [
      {"measurement": "nicotinamide concentration at which Ins I was expressed", "setting": "IPSC line #7; IPSC line #7", "value": "1 to 20", "unit": "mM"},
      {"measurement": "nicotinamide concentration at which Ins II was expressed", "setting": "IPSC line #7; IPSC line #7", "value": "20 to 40", "unit": "mM"},
      {"measurement": "nicotinamide dose at which glucagon expression was visible", "setting": "IPSC line #7; IPSC line #7, data not shown", "value": "< 10", "unit": "mM"},
      {"measurement": "nicotinamide doses at which amylase expression was maintained", "setting": "IPSC line #7; IPSC line #7, data not shown", "value": "0 to 40", "unit": "mM"},
      {"measurement": "expression of development/differentiation factors", "setting": "IPSC line #7; at different doses, data not shown", "value": "enhancement of Isl-1, beta2/neuroD, IPF-1, Nkx 2.2 and 6.1"},
      {"measurement": "cells expressing insulin", "setting": "human cell line (#H3)", "value": "about 2%"},
      {"measurement": "cells expressing tyrosine hydroxylase", "setting": "human cell line (#H3)", "value": "None"},
      {"measurement": "expression of pancreatic products", "setting": "human cell line (#H3)", "value": "express glucagon (FIG. 16K), amylase (FIG. 16I), cytokeratin 7 (FIG. 16C), and cytokeratin 19 (FIG. 16E)"},
      {"measurement": "differentiation of IPCs to IdIs", "setting": "[1]; in combination with epidermal growth factor or hepatocyte growth factor, data not shown", "value": "induced the differentiation of IPCs to IdIs"},
      {"measurement": "insulin content of IdIs", "setting": "[1]; nicotinamide 1-10 mM for 5 days, then 17.5 mM glucose 3 hours, versus glucose alone", "value": "increased insulin content"},
      {"measurement": "insulin secretion of IdIs", "setting": "[1]; nicotinamide 1-10 mM for 5 days, then 17.5 mM glucose 3 hours, versus glucose alone, P<0.05", "value": "significantly increased levels of insulin"}
    ]},
    {"molecule": "glucagon like peptide-1 (HAEGTFTSDVSSYLEGQAAKEFIAWLVKGR; ends and bridges not checked; UniProt P01275 98-127, looked up) [GLP-1, secretagogue stimulating β cells through elevation of cAMP and the protein kinase A pathway]", "values": [
      {"measurement": "insulin release from IdIs by secretagogues", "setting": "[1]", "value": "induced insulin release"}
    ]}
  ]
}
